# In EPA's ToxValDB 9.5 (doi:10.2903/j.efsa.2014.3873):
# Tests used:
# Rattus norvegicus = conditions: for NOAEL: clinical signs
# Apis mellifera = conditions: acute; dermal; mortality
# Bibionidae = conditions: chronic/long-term; duration: 28 days; other
# Daphnia magna = conditions: chronic/long-term, duration: 21 days
# Adalia sp. = assay: LR50; higher = less toxic; conditions: acute; duration: 48 hours; mortality
smiles,measurement,setting,value
CC(C)[C@H](C(=O)O[C@H](C#N)c1cccc(Oc2ccccc2)c1)c1ccc(Cl)cc1 [Esfenvalerate],LC50,"Oncorhynchus mykiss; acute, duration: 96 hours, mortality",0.1 ng/mL
same,NOEC,"Oncorhynchus mykiss; chronic/long-term, duration: 21 days",0.001 µg/L
same,NOAEL,Rattus norvegicus; acute,1.75 mg/kg-day
same,LD50,"Rattus norvegicus; acute, oral, mortality",88.5 mg/kg
same,NOAEL,Rattus norvegicus; chronic,1.75 mg/kg-day
same,LD50,Apis mellifera,0.06 µg/piece
same,NOEC,Bibionidae,0.16 µg/L
same,NOEC,Daphnia magna,0.052 µg/L
same,NOEC,Daphnia magna; reproduction,0.0038 µg/L
same,LC50,"Tagia sp.; acute, mortality",10.6 mg/kg
same,NOEC,Tagia sp.; chronic/long-term,1.1 mg/kg
same,LD50,"Colinus virginianus; acute, oral, mortality",1310 mg/kg-day
same,NOEC,Colinus virginianus; reproduction developmental,18.7 mg/kg-day
same,LR50,Adalia sp.,0.291 g/ha
